Measurements taken from PubChem BioAssay (NCI).
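Each compound was tested at five concentrations against cells in 96-well plates for 48 hours. The concentration for 50% growth inhibition is given as GI50. At the TGI there is no net growth.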

How the values were obtained:
Assay in all cases: growth of human tumour cells (NCI), 48 h
HCT-116 colon = test system: HCT-116 colon
NCI/ADR-RES ovarian = test system: NCI/ADR-RES ovarian
OVCAR-5 ovarian = test system: OVCAR-5 ovarian
OVCAR-8 ovarian = test system: OVCAR-8 ovarian
PC-3 prostate = test system: PC-3 prostate
SW-620 colon = test system: SW-620 colon
T-47D breast = test system: T-47D breast
TK-10 renal = test system: TK-10 renal
UACC-62 melanoma = test system: UACC-62 melanoma
IGROV1 ovarian = test system: IGROV1 ovarian

Compound | TGI (HCT-116 colon) [µM] | TGI (NCI/ADR-RES ovarian) [µM] | TGI (OVCAR-5 ovarian) [µM] | TGI (OVCAR-8 ovarian) [µM] | TGI (PC-3 prostate) [µM] | TGI (SW-620 colon) [µM] | TGI (T-47D breast) [µM] | TGI (TK-10 renal) [µM] | TGI (UACC-62 melanoma) [µM] | TGI (IGROV1 ovarian) [µM] | GI50 (NCI/ADR-RES ovarian) [µM] | GI50 (PC-3 prostate) [µM] | GI50 (T-47D breast) [µM] | GI50 (IGROV1 ovarian) [nM] | GI50 (OVCAR-5 ovarian) [nM] | GI50 (UACC-62 melanoma) [nM]
CC(/C=C/c1ccc([N+](=O)[O-])o1)=N/N1CC(CN2CCOCC2)OC1=O (centres undefined) | 56.4 | 95.9 | > 100 | 35.3 | 68 | 77.3 | 41.2 | > 100 | 52.3 |  |  |  |  |  |  | 
c1ccc2c(c1)nc1n2CSC1 |  |  |  | > 100 |  | > 100 |  | > 100 | > 100 | > 100 |  |  |  |  |  | 
CC(=O)[O-].CC(=O)[O-].[NH2-].[Pt+2].c1ccncc1 | > 100 | > 100 | > 100 | 40.1 | > 100 | > 100 | > 100 | > 100 | > 100 | > 100 | 80 | > 100 | 59.4 |  |  | 
CN1CCN(Cc2ccc(NC(=O)c3ccc(C#N)c(C#Cc4cnc(N)c5ncccc45)c3)cc2C(F)(F)F)CC1 |  |  | 3.34 |  |  |  | > 100 |  | 3.26 | 7.01 |  |  | 28.6 | 1760 | 1710 | 1730
CCOP(=O)(OCC)C(Cc1ccc(OC)c(OC)c1)N=C(c1ccccc1)c1ccccc1 (centres undefined) | > 100 | > 100 | > 100 | > 100 | > 100 | > 100 | 56.8 | > 100 | > 100 | > 100 |  |  |  |  |  | 
O=C1CN2C(Cl)(Cl)C2(c2ccccc2)c2cc(Cl)ccc2N1CC(F)(F)F (centres undefined) | 49.3 |  | > 100 | > 100 |  | > 100 |  | > 100 | > 100 | 73.7 |  |  |  |  |  | 
[C-]#[O+].[Cl][Sn]([Cl])[Cl].[Cl][Sn]([Cl])[Cl].[Pt].c1ccncc1 | > 100 | > 100 | > 100 | > 100 |  | > 100 |  |  | > 100 | > 100 | > 100 |  |  |  |  | 
Cc1cc2c(cc1C)[n+](=O)c(C(=O)N1CCN(c3ccc([N+](=O)[O-])cc3)CC1)c(C)n2[O-] | > 100 | > 100 | > 100 | > 100 | > 100 | > 100 | > 100 | 40.4 | > 100 | 87.7 |  |  |  |  |  | 
CC1=C[C@]2(CC(C)C3C(CC4(C)C5CCC6C(C)(C)C(=O)CC[C@@]67C[C@@]57CC[C@]34C)O2)OC1=O (some centres undefined) | > 100 |  | > 100 | > 100 |  | > 100 |  | 79 |  | > 100 |  |  |  |  |  | 
O=C(Nc1ccc(Cl)cc1)/C(Cc1cccc[n+]1[O-])=N\Nc1ccc([N+](=O)[O-])cc1[N+](=O)[O-] | > 100 |  | > 100 | > 100 |  | > 100 |  | > 100 | > 100 | > 100 |  |  |  |  |  | 
COc1cc(C(N)=O)cc(NC(=O)/C=C/c2ccccc2)c1OC | > 100 | > 100 | > 100 | > 100 | > 100 | > 100 | > 100 | > 100 | > 100 | > 100 |  |  |  |  |  | 
Cc1ccc(S(=O)(=O)Oc2cc(S(=O)(=O)O)cc3cc(S(=O)(=O)O)cc(N)c23)cc1 | > 100 | > 100 | > 100 | > 100 | > 100 | > 100 | > 100 | > 100 | > 100 | > 100 |  |  |  |  |  | 
CC1(C)CCc2cc3c(-c4ccccc4)cc(=O)oc3cc2O1 |  |  |  | > 100 |  | > 100 |  | > 100 | > 100 | > 100 |  |  |  |  |  | 
Cc1cccc2c(N)c3cccc(C(=O)NCCN(C)C)c3nc12 | 2.38 | 4.74 | 0.723 | 2.01 | 0.357 |  | 0.513 | > 30 | 0.227 | 0.508 |  |  |  |  |  | 
O=C1Nc2ccccc2Nc2nc3cccccc-3c21 | > 100 |  | > 100 | > 100 |  | > 100 |  | > 100 | > 100 | > 100 |  |  |  |  |  | 
CO/N=C1/c2sccc2[C@H](NC(=O)C(F)(F)F)[C@@H]1O | > 100 | > 100 | > 100 | > 100 | > 100 | > 100 | > 100 | > 100 | > 100 | > 100 |  |  |  |  |  | 
